Measurements from patent publication US20260097111A1, “ETHER LIPIDS FOR HYPERACTIVATION OF MAMMALIAN DENDRITIC CELLS” (priority 2022, published 2026).
Entries after “also recorded” stand apart in the source; their conditions may differ.

What was measured:
Solubility observations = type: physicochemical
[1] = tested on: human monocyte-derived dendritic cells (moDCs); experiment: IL-1β secretion by human moDCs treated with lipid and R848; type: cell-based
Protocol: (§1) Human monocytes were isolated from Leukopaks purchased from Miltenyi using the StraightFrom Leukopak CD14 microbead kit (Miltenyi). Isolations were completed following manufacturer's instructions. Monocytes were then aliquoted and frozen in fetal bovine serum containing 10% dimethyl sulfoxide. For studies with monocyte-derived dendritic cell (moDC) cultures, monocytes were thawed and cultured in RPMI medium containing 10% FBS, 50 units/mL penicillin, […] streptomycin, 2 mM L-glutamine, 1 mM sodium pyruvate, […] beta-mercaptoethanol, 10 mM HEPES, and Gibco MEM non-essential amino acids (R10 media). To differentiate monocytes into moDCs, recombinant human GM-CSF (50 ng/mL) and IL-4 (25 ng/mL) were added to R10 media. Cells were cultured for 6 days with GM-CSF and IL-4, with an additional cell feeding with R10 containing GM-CSF and IL-4 on day 3.
Six days after differentiation, moDC were collected and counted. Cells were plated into 96-well flat-bottom plates at 1×10^5 cells/well. Cells were treated with or without 1 μg/mL R848 (final) and with or without a hyperactivating lipid (or vehicle control). In some experiments, MCC950, an inhibitor of the NLRP3 inflammasome, was added at a final concentration of 10 uM. In some experiments, nigericin, which causes NLRP3 inflammasome activation and subsequent pyroptosis, was used as a positive control at 20 uM. Cells and stimuli totaled a final volume of […].
Lipid stocks were then further diluted in PBS to treat cells.
(§2) After an overnight incubation, cells and culture supernatant were used for downstream readouts. One hundred and fifty microliters of cell supernatant were collected. Viability was measured using the CellTiter-Glo assay (Promega) which measures ATP content from cells. Fifty microliters of CellTiter-Glo reagent were added to 50 μL of cells. Luminescence was quantified on a SpectraMax m5e plate reader using an integration time of 500 milliseconds. Viability data were set relative to control conditions where cells were treated with only R848. To measure IL-1β secretion, the human IL-1β Lumit kit (Promega) was used to assay cell culture supernatant. Culture supernatant samples were incubated with enzyme-linked antibodies in a 384-well plate for 1 hour before addition of luminescent substrate. Samples were measured for luminescence with an integration time of 500 milliseconds. IL-1β concentrations of samples was determined by interpolation from a standard curve using 4-parameter logistic regression analysis. Studies were performed on three different human donor samples, and each biological condition was tested in triplicate. Graphed data represent means from each donor.
as §1, with “Human moDC Production. Human” for “Human”, “(Miltenyi) according to the” for “(Miltenyi). Isolations were completed following”, “To differentiate” for “For studies with”, “pyruvate, and” for “pyruvate,”, “beta-mercaptoethanol” for “beta-mercaptoethanol, 10 mM HEPES, and Gibco MEM non-essential amino acids”
Hyperactivating Lipid Formulation—Compound 10. Lipid stocks were formulated at 200 μg/mL lipid in 5% Kolliphor P407 (KP407) in PBS.

human moDCs [2] = experiment: Cell viability of human moDCs (CellTiter-Glo); type: cell-based
Protocol: as §2
Measurement of Cytokine Secretion and Cell Viability. After an overnight incubation, cells and culture supernatant were used for downstream readouts. One hundred and fifty microliters of cell culture supernatant were collected. Viability was measured using the CellTiter-Glo assay (Promega) which measures ATP content from cells. Fifty microliters of CellTiter-Glo reagent were added to 50 μL of cells. Luminescence was quantified on a SpectraMax m5e plate reader using an integration time of 500 milliseconds. Viability data were set relative to control conditions where cells were treated with only R848. To measure IL-1β secretion, the human IL-1β Lumit kit (Promega) was used. […] Samples were measured for luminescence with an integration time of 500 milliseconds. IL-1β concentrations of samples was determined by interpolation from a standard curve using 4-parameter logistic regression analysis. […]

human moDCs [3] = experiment: moDC viability by LDH release and CellTiter-Glo 2.0; type: cell-based
Protocol: Monocyte Isolation, Storage, and Differentiation into moDC.
CellTiter-Glo 2.0 Cell Viability Assay. As an additional method to measure cell viability, CellTiter-Glo 2.0 Cell Viability Assay kit from Promega was used. CellTiter-Glo 2.0 reagent was used according to instructions of the manufacturer. Briefly, frozen reagent was thawed at 4° C. and aliquoted. Aliquots were stored at 4° C. in the dark. After removing 150 μL of the cell culture volume for use in other assays, cells were lysed with 50 μL/well CellTiter-Glo reagent by pipetting up and down. After incubating in the dark at RT for 10 min, samples were transferred to white opaque 96-well plates. Luminescence was measured for 500 ms/well using a Spectramax M3 plate reader. Luminescence values were normalized to the mean values of control samples and multiplied 100-fold to report values as percentage viability.

[4] = human moDCs, 41.25 μM lipid with R848, FIG. 17

| Compound | solubility (Solubility observations) | IL-1β secretion [1, 4] | IL-1β secretion ([1]; human moDCs, 41.25 μM lipid with R848 vs vehicle control, FIG. 8) | IL-1β secretion ([1]; human moDCs, 41.3 uM lipid with R848, FIG. 11) | IL-1β secretion ([1]; human moDCs, 24 hours, lipid (equimolar, in 0.5% KP407) with R848, FIG. 1B) | IL-1β secretion ([1]; human moDCs, 24 hours, lipid in 4% KP407 with R848, FIG. 2B) | cell viability (human moDCs [2]; human moDCs, 20.6 μM lipid, FIG. 19) [%] | hyperactivation of human dendritic cells ([1]; 41.25 μM lipid with R848 (Compound 1 also 20.6 μM)) | IL-1β secretion ([1]; human moDCs, 20.6 μM lipid, FIG. 20) | IL-1β secretion ([1]; human moDCs, 24 hours, lipid (equimolar, in 0.5% KP407) with R848, FIG. 1B, listed as DGPC) | decrease in cell viability (human moDCs [2]; human) | IL-1β secretion ([1]; human moDCs primed with R848 for 3 hours, then nigericin, FIG. 2B) | cell viability (CellTiter-Glo) (human moDCs [3]) | cell viability (LDH release assay) (human moDCs [3]) |
| --- | --- | --- | --- | --- | --- | --- | --- | --- | --- | --- | --- | --- | --- | --- |
| 1-behenoyl-2-hydroxy-sn-glycero-3-phosphocholine [22:0 lyso PC, reference compound] | can be dissolved in ethanol, methanol, or chloroform | significant increase in IL-1β | produced significantly more IL-1β | robustly induced IL-113 secretion | IL-1β was secreted | induced a detectable amount of IL-1β |  |  |  |  |  |  |  |  |
| CCCCCCCCCCCCCCCCCCCCCCOC[C@@H](O)COP(=O)([O-])OCC[N+](C)(C)C [Compound 1, 1-docosyl-sn-glycerol-3-phosphocholine] | can be dissolved in ethanol, methanol, or chloroform | significantly increased IL-1β secretion |  |  |  |  | > 75 | hyperactivated dendritic cells | induced IL-1β secretion that was dependent upon R848 stimulation and the NLRP3 inflammasome | also induced IL-1β secretion; also recorded: induced less IL-1β than 22:0 lyso PC |  |  |  |  |
| CO[C@@H]1C[C@@H](C[C@H]2CC[C@H](C)[C@H]([C@@H](C)C(=O)O)O2)O[C@]2(O[C@](C)([C@H]3CC[C@@](C)([C@@H]4O[C@@H]([C@H]5O[C@@](O)(CO)[C@H](C)C[C@@H]5C)C[C@@H]4C)O3)C[C@H]2C)[C@@H]1C [nigericin] |  |  |  |  |  |  |  |  |  |  | approximately 50% | IL-1β was produced | below 2% | below 75% |
